Read-outs that look alike come from different tables or passages of the source.
What was measured:
[1] = target: T1, immobilized lactase (lactase derived from Aspergillus oryzae) (Aspergillus oryzae, UniProt Q2UCU3); assay: Residual enzyme activity of immobilized lactase after immersion in disinfectant solutions; type: biochemical; details: for Residual enzyme activity (relative ratio, %) after immersion for 7 days / Residual enzyme activity (relative ratio, %) after immersion for 30 days / remaining activity at 1 % / remaining activity at 0.1 % / remaining activity at 70 % / remaining activity at 0.01 %: 18°-20° C.; for remaining activity at 0.1 %: chemical 0.1%; for remaining activity at 70 %: chemical 70%; for remaining activity at 0.01 %: chemical 0.01%
T1 construct: host or cells: Aspergillus oryzae
T1 sequence (Q2UCU3 19-1005): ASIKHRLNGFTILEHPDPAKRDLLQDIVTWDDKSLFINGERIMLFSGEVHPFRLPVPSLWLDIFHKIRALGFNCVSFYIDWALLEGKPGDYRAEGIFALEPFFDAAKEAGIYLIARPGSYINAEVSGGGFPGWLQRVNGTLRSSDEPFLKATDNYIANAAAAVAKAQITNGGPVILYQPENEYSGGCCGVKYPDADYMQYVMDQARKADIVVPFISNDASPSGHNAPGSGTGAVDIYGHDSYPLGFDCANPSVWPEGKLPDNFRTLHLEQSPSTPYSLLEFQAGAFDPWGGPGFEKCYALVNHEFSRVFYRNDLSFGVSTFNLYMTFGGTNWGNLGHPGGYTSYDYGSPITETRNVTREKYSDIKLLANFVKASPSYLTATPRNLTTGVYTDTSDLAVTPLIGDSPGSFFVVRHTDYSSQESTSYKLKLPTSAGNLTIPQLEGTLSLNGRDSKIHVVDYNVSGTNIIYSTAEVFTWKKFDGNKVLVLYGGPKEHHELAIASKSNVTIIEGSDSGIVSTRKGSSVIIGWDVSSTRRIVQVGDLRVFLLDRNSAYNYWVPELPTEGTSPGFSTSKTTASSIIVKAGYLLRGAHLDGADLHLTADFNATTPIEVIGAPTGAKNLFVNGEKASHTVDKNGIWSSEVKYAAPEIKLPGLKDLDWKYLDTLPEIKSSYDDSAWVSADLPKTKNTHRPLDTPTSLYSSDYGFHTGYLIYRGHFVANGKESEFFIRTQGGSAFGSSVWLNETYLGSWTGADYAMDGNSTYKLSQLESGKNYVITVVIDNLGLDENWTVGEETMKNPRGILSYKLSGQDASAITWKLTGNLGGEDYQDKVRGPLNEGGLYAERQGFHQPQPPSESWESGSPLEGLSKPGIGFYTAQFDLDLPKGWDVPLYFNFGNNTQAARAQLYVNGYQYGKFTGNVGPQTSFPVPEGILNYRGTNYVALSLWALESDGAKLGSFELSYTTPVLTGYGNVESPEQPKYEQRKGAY
Source text: As the immobilized lactase was used one prepared by using a macroporous phenol-formaldehyde type amphoteric ion-exchange resin (particle size: 250-840μ) as the carrier, making the same adsorb the lactase derived from Aspergillus oryzae and carrying out the glutaraldehyde treatment to cause immobilization by covalent linkage [EPC publication No. 26672 (published on Apr. 8, 1981)].
(2) Residual enzyme activity
[…] […] The sample was sufficiently washed with an excessively large amount of water and a 0.05 M acetate buffer solution at pH 4.5 and then the residual activity was measured.
In 30 ml of lactose solution having a concentration of 13.3 (W/V) % prepared by dissolving lactose in a 0.05 M acetate buffer solution of pH 4.5 was immersed 0.2-0.25 ml of an immobilized lactase. The reaction was allowed to proceed at 30° C. under reciprocating shaking (more than 100 rpm with an amplitude larger than 3.5 cm) for 15 minutes. Then the amount of glucose produced was determined with a glucose oxidase-peroxidase-dye system. The amount of enzyme which produces 1μ mol of glucose per minute is defined as one unit (1 ILU). The dry weight of an immobilized lactase is determined as mentioned below. That is, after the termination of the reaction, the immobilized lactase was filtered, dried at 50° C. under reduced pressure for 8 hours or more, placed in a desiccator at room temperature (18°-25° C.) for 1.5 hours or more, the weight thereof was then measured and this value is regarded as the dry weight of the immobilized lactase. The activity of an immobilized lactase is represented by the unit per gram of dry weight (1 ILU/g-IML).

[2] = tested on: Mixture of five strains separated from the putrefied milk; assay: Disinfecting power (number of viable cells); type: cell-based; details: initial 10^5-10^6/ml
Description: (1) Disinfecting power (number of viable cells)
Milk obtained commercially was putrefied. Mixture of five strains separated from the putrefied milk was suspended in a 0.2 % bouillon solution (pH: 7.0) so that the number of viable cells attains to 10^5 -10^6 /ml. To this suspension was added an equal amount of an undiluted solution having a concentration of each chemical twice as high as that to be applied. A cotton plug was corked to each container and sampling was carried out after 1 hour and 7 days. The sample was diluted at need and plating on the standard agaragar culture medium was effected to count the number of colonies.
The symbols related to the number of viable cells designate as follows: […]

[3] = chemical 1%, relative to 860 ILU/g-IML before immersion
[4] = 168 h, chemical 1%, relative to 860 ILU/g-IML before immersion, read-out: Residual enzyme activity (relative ratio, %) after immersion for 7 days
[5] = 720 h, chemical 1%, relative to 860 ILU/g-IML before immersion, read-out: Residual enzyme activity (relative ratio, %) after immersion for 30 days
[6] = 168 h, relative to 860 ILU/g-IML, read-out: Residual enzyme activity (relative ratio, %) after immersion for 7 days
[7] = 720 h, relative to 860 ILU/g-IML, read-out: Residual enzyme activity (relative ratio, %) after immersion for 30 days
[8] = chemical 10%, relative to 860 ILU/g-IML
[9] = concentration of chemical 0.01%

Row | SMILES | Number of viable cells after 1 hr. ([2]; concentration of chemical 1%) | Number of viable cells after 7 days ([2]; concentration of chemical 1%) | remaining activity at 1 % [1, 4] | remaining activity at 1 % [1, 5] | further results
1 | OO [35% H2 O2 solution, hydrogen peroxide] | ⊖ | ⊖ | – | – | Residual enzyme activity (relative ratio, %) after immersion for 7 days [1, 3]: 100%; Residual enzyme activity (relative ratio, %) after immersion for 30 days [1, 3]: 98%
2 | CC(=O)O [Acetic acid] | ⊖ | ⊖ | 102% | 100% | –
3 | CC(=O)C1C(=O)C=C(C)OC1=O (stereo not shown) [Dehydroacetic acid] | – | – | – | – | remaining activity at 0.1 % [1, 6]: 98%; remaining activity at 0.1 % [1, 7]: 102%; Number of viable cells after 1 hr. ([2]; concentration of chemical 0.1%): ⊖; Number of viable cells after 7 days ([2]; concentration of chemical 0.1%): ⊖
4 | CCO [Ethyl alcohol] | – | – | – | – | decrease of activity of immobilized lactase on immersion ([1]; 70% solution, immersed for a long period at 18°-20° C.): decrease of activity to some extent; remaining activity at 70 % [1, 6]: 84%; remaining activity at 70 % [1, 7]: 67%; Number of viable cells after 1 hr. ([2]; concentration of chemical 70%): ⊖; Number of viable cells after 7 days ([2]; concentration of chemical 70%): ⊖
5 | O=CCCCC=O [Glutaraldehyde] | ⊖ | ⊖ | 102% | 98% | –
6 | CC(O)C(=O)O (stereo not shown) [Lactic acid] | ⊖ to ⊕ | ⊖ | 103% | 101% | decrease of activity of immobilized lactase on immersion ([1]; 1% solution, five months at room temperature (18°-25° C.)): completely no decrease of activity
7 | O=C(O)CC(O)C(=O)O (stereo not shown) [Malic acid] | ⊖ | ⊖ | 101% | 100% | –
8 | C/C=C/C=C/C(=O)[O-].[K+] [Potassium sorbate] | ⊖ | ⊖ | 103% | 101% | –
9 | [Cl-].[Na+] [Sodium chloride] | – | – | – | – | Residual enzyme activity (relative ratio, %) after immersion for 7 days [1, 8]: 100%; Residual enzyme activity (relative ratio, %) after immersion for 30 days [1, 8]: 98%; Number of viable cells after 1 hr. ([2]; concentration of chemical 10%): ⊖ to ⊕; Number of viable cells after 7 days ([2]; concentration of chemical 10%): ⊖
10 | OCl [Sodium hypochlorite] | – | – | – | – | decrease of activity of immobilized lactase on immersion ([1]; 0.01% solution, immersed for a long period at 18°-20° C.): decrease of activity to some extent; remaining activity at 0.01 % [1, 6]: 96%; remaining activity at 0.01 % [1, 7]: 92%; Number of viable cells after 1 hr. [2, 9]: ⊖; Number of viable cells after 7 days [2, 9]: ⊖

Source: patent publication US4465772A, “Method for disinfecting and washing of immobilized lactase” (priority 1980, dated 1984)
